According to patent US20180355033A1, “ANTIBODIES, COMPOUNDS AND SCREENS FOR IDENTIFYING AND TREATING CACHEXIA OR PRE-CACHEXIA” (Dana-Farber Cancer Institute, Inc., priority 2015, published 2018):
“Also recorded” adds a separate entry of the source.

Tests used:
[1] = system: rat model of ICH; conditions: cited from earlier work
[2] = target: V domain of RAGE (Homo sapiens, UniProt Q15109); conditions: cited from earlier work
[3] = system: RAGE-expressing cells; conditions: RAGE-expressing cells in vitro and mouse brain in vivo; cited from earlier work
[4] = target: T1, RAGE (Homo sapiens, UniProt Q15109); conditions: cited from earlier work
T1 sequence (Q15109 23-404): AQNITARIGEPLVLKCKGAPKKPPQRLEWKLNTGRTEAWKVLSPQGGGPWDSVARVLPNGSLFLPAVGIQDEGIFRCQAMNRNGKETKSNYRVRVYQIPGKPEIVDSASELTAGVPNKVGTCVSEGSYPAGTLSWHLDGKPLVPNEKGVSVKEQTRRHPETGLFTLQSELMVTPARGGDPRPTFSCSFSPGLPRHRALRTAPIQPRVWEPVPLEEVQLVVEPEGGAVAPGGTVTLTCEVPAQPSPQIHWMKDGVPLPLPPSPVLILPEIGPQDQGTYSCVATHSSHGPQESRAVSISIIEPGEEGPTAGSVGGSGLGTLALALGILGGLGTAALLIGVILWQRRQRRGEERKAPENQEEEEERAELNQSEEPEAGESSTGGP

[5] = system: HSkM; test: Functional testing in Cachexia Assay (HSkM functional assay); assay type: cell-based, human; conditions: FIG. 25
Description: This implies that the modeled Ab epitope is likely a functional focused target for Ab therapy and that this is the basis for further small molecule therapeutic development for cancer cachexia and other RAGE mediated diseases.

[6] = system: A-beta brain entry; conditions: in vivo; cited from earlier work
[7] = target: T1, RAGE; test: Direct immunoprecipitation with RAGE; assay type: binding; conditions: direct immunoprecipitation experiments
[8] = system: Primary human myoblast differentiated into terminal myotubes; test: Cachexia induction by recombinant S100/HMGB1 ligands, myosin HC in-cell Western; assay type: cell-based; conditions: recombinant ligand applied each day for 3 days
Method: FIGS. 1-3 illustrate the effect of various proteins of the S100 family, as well as HMGB1, as cachexia inducers when compared with cachexia-inducing media. Primary human myoblast were plated and differentiated into terminal myotubes as previously described. Recombinant ligands were prepared at the same dose curve in Hanks Balance Salt Solution (buffer) and applied 1:2 v:v to fresh maintenance media each day for 3 days. Cells were assessed for myosin HC content by in-cell Western staining as previously described.

V domain of RAGE, sequence (Q15109 23-116 limits assumed): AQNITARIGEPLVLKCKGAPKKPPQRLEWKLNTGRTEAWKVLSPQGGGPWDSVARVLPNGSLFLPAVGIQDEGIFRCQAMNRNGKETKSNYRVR

With `O=C(c1ccc(Cl)cc1)N(Cc1ccccc1)C1CCCCC1` [FPS-ZM1] as the molecule, how does the “BBB damage, brain edema, motor dysfunction, nerve fiber injury” value ([1]; rat ICH model, FPS-ZM1 administration) read?
Its value is “significant improvements of BBB damage, brain edema, motor dysfunction, and nerve fiber injury”.

And the “FeCl2-induced RAGE and nuclear factor κB p65 upregulation” value ([1]; rat, in vivo)?
The value was “reversed FeCl2-induced RAGE and nuclear factor κB p65 upregulation”.

And the “blocking of Aβ binding to the V domain of RAGE” value [2]?
Its value is “blocked A13 binding to the V domain of RAGE”.

And the “inhibition of Aβ40- and Aβ42-induced cellular stress” value [3]?
The value was “inhibited A1340- and A1342-induced cellular stress”.

Which results are given for `CCN(CC)CCOc1ccccc1Nc1nc(-c2ccc(Cl)cc2)cc(-c2ccc(Cl)cc2)n1` [Compound 60, 4,6-bis(4-chlorophenyl)-N-(2-(2-(diethylamino)ethoxy)phenyl)-pyrimidin-2-amine]?
affinity to ligand [4]: highest affinity to ligand; in vitro activity [4]: best in vitro activity

With `CCCCCC(=Cc1ccccc1)CN(CCc1c[nH]c2ccccc12)C(=O)c1ccc(Cl)c([N+](=O)[O-])c1` [FPS3] as the molecule, how does the “inhibition of cachexia phenotype” value [5] read?
Its value is “inhibits cachexia phenotype”.

Which “A-beta brain entry inhibition” value [6] does the source give for `CCN(CC)CCOc1cccc(Nc2nc(-c3ccc(Cl)cc3)cc(-c3ccc(Cl)cc3)n2)c1` [Compound 59, 4,6-bis(4-chlorophenyl)-N-(3-(2-(diethylamino)ethoxy)phenyl)-pyrimidin-2-amine] here?
Its value is “most potent A-beta brain entry inhibition”.

What about the affinity to ligand [4] of the same molecule?
The affinity to ligand was “highest affinity to ligand”.

And the “inhibition (not further specified)” value [4]?
Its value is “most significant inhibition”.

With `CCN(CC)CCOc1cccc(Nc2nc(C)cc(-c3ccc(OCCC4CCCCC4)cc3)n2)c1` [Compound 53, 4-(4-(2-cyclohexylethoxy)phenyl)-N-(3-(2-(diethylamino)ethoxy)-phenyl)-6-methylpyrimidin-2-amine] as the molecule, how does the affinity to ligand [4] read?
Its affinity to ligand is “highest affinity to ligand”.

Which “direct binding to RAGE” value [7] does the source give for “S100A8/A9: recombinant S100A8/A9 (Calprotectin)” here?
The value was “directly bind to RAGE”.

And the “induction of the cachectic phenotype (myosin HC content)” value (“induction of the cachectic phenotype” for short) [8]?
Its value is “capable of inducing the cachexia phenotype”.

B1: S100B: recombinant S100 family RAGE ligand (protein, UniProt P04271 2-92, looked up)
Protein S100-B: SELEKAMVALIDVFHQYSGREGDKHKLKKSELKELINNELSHFLEEIKEQEVVDKVMETLDNDGDGECDFQEFMAFVAMVTTACHEFFEHE
For B1, which “induction of the cachectic phenotype” value [8] is on record?
The value was “little or no activity in inducing cachexia; also recorded: do not induce precachexia and/or cachexia”.

B2: S100 A7: recombinant RAGE ligand of the S100 family (protein, UniProt P31151 2-101, looked up)
Protein S100-A7: SNTQAERSIIGMIDMFHKYTRRDDKIEKPSLLTMMKENFPNFLSACDKKGTNYLADVFEKKDKNEDKKIDFSEFLSLLGDIATDYHKQSHGAAPCSGGSQ
For B2, which “direct binding to RAGE” value [7] is on record?
Its value is “directly bind to RAGE”.

And the “induction of the cachectic phenotype” value [8]?
The value was “inducers of the cachectic phenotype”.

What about the “induction of the cachectic phenotype” value ([8]; listed as S100A7) of the same molecule?
Its value is “capable of inducing the cachexia phenotype”.

B3: HMGB1: high mobility group box 1, RAGE ligand (protein, UniProt P09429 1-215, looked up)
High mobility group protein B1: MGKGDPKKPRGKMSSYAFFVQTCREEHKKKHPDASVNFSEFSKKCSERWKTMSAKEKGKFEDMAKADKARYEREMKTYIPPKGETKKKFKDPNAPKRPPSAFFLFCSEYRPKIKGEHPGLSIGDVAKKLGEMWNNTAADDKQPYEKKAAKLKEKYEKDIAAYRAKGKPDAAKKGVVKAEKSKKKKEEEEDEEDEEDEEEEEDEEDEDEEEDDDDE
Which “induction of the cachectic phenotype” value [8] does the source give for B3 here?
Its value is “do not induce precachexia and/or cachexia; also recorded: not cachexogenic in muscle; also recorded: cannot; also recorded: does not induce the cachectic phenotype”.

B4: A9: recombinant RAGE ligand of the S100 family (protein, UniProt P06702 1-114, looked up)
Protein S100-A9: MTCKMSQLERNIETIINTFHQYSVKLGHPDTLNQGEFKELVRKDLQNFLKKENKNEKVIEHIMEDLDTNADKQLSFEEFIMLMARLTWASHEKMHEGDEGPGHHHKPGLGEGTP
For B4, which “induction of the cachectic phenotype” value [8] is on record?
The value was “inducers of the cachectic phenotype”.

B5: A8: recombinant RAGE ligand of the S100 family (protein, UniProt P05109 1-93, looked up)
Protein S100-A8: MLTELEKALNSIIDVYHKYSLIKGNFHAVYRDDLKKLLETECPQYIRKKGADVWFKELDINTDGAVNFQEFLILVIKMGVAAHKKSHEESHKE
With B5 as the molecule, how does the “induction of the cachectic phenotype” value [8] read?
Its value is “inducers of the cachectic phenotype”.
